According to patent publication US8742158B2, “Protease inhibitors” (TaiMed Biologics, Inc., priority 2006, dated 2014):
“And” between values parts separate entries of the source, which are not always exact repeats. Identical values can stand only once. Like-named read-outs stand apart in the source and are kept apart here.

Legend:
HIV-1 viral strain NL4-3 = experiment: Anti-viral assay in vitro (MTT, infected MT-4 cells, six days); assay type: cell-based; conditions: Human immunodeficiency virus 1, NL43, MT4, 144 h, read-out: ANTI-HIV-EC50 VIRAL STRAIN NL4-3
Method: Anti-Viral and Cytotoxicity Assays In Vitro
• To evaluate the EC50 of our compounds, various drug concentrations are incubated with the infected cell for six days and then the metabolic activity of the cells is monitored by the MTT assay. (See A. J. Japour et al., Antimicrobial Agents and Chemotherapy, 37, 1095-1101, 1993 and R. Pauwels et al. Journal of Virological Methods, 20, 309-321, 1988) • We use the laboratory viral strain NL4.3 as wild type virus and the cell line used is MT-4 which is a T-cell line highly sensitive to HIV-1. We also use some WT clinical strains. To address the resistance issue we assay the inhibitors with NL4.3 mutants which are designed to be resistant to specific commercially available inhibitors. • The same MTT assay is used to evaluate the CCIC50 (cell culture of IC50) of our compounds except that the virus is omitted.

HIV-1 Protease = HIV-1 Protease (Human immunodeficiency virus type 1 group M subtype B (isolate HXB2) (HIV-1), UniProt P04585); experiment: Enzymatic (FRET fluorometric) assay for determining the inhibition constant (Ki) of compounds targeting the HIV protease; assay type: biochemical; conditions: for IC50: read-out: IC50 ENZYME HIV-1 Protease
From the text: Enzymatic Assay for Determining the Inhibition Constant (Ki) of Synthetic Compounds Targeting the HIV Protease
This is a fluorometric assay based on the cleavage by protease of a substrate carrying a donor group (EDANS) and an acceptor group (DABCYL) on each side of the cleavage site, interacting together through fluorescence resonance energy transfer (FRET) as described by Matayoshi et al. (Science 247:[…], 1990).
After calculation of Vo and Vi, the inhibition constant (Ki) of the compound is determined using the equation of Henderson:
where Vo=the enzyme's initial velocity
Vi=the enzyme velocity in the presence of the inhibitory compound,
[I]=inhibitor concentration, [S]=substrate concentration,
Km=Michaelis-Menten constant and Kiapp=apparent Ki
Graphs are traced and the Ki determined using GraphPad Prism software v. 3.0.

[1] = KIGRAPHIC ENZYME HIV-1 Protease, Ki determined graphically, read-out: […] ENZYME HIV-1 Protease
[2] = calculated Ki, read-out: KI-CALC ENZYME HIV-1 Protease

Compound	EC50 (HIV-1 viral strain NL4-3) [nM]	Ki (HIV-1 Protease; [1])	Ki (HIV-1 Protease; [2]) [nM]	IC50 (HIV-1 Protease)
Cc1ccc(C(=O)N[C@@H](Cc2ccccc2Br)C(=O)NCCCC[C@@H](CO)N(CC(C)C)S(=O)(=O)c2ccc(N)cc2)cc1O [EX 37]	60	0.224 nM	< 3.8	0.683 nM
CC(C)CN([C@H](CO)CCCCNC(=O)[C@H](Cc1ccccc1Br)NC(=O)OCc1ccncc1)S(=O)(=O)c1ccc(N)cc1 [EX 38]	248	0.27 nM	–	0.92 nM
CC(C)CN([C@H](CO)CCCCNC(=O)[C@H](Cc1ccc2ccccc2c1)NCc1ccccn1)S(=O)(=O)c1ccc(N)cc1 [EX 56]	> 50000	–	–	5.9 nM
CC(C)CN([C@H](CO)CCCCNC(=O)[C@@H](NS(=O)(=O)c1cccs1)C(c1ccccc1)c1ccccc1)S(=O)(=O)c1ccc(N)cc1 [EX 57]	64	0.541 nM	< 3.8	0.601 nM
CC(C)CN([C@H](CO)CCCCNC(=O)[C@@H](NC(=O)NCc1ccncc1)C(c1ccccc1)c1ccccc1)S(=O)(=O)c1ccc(N)cc1 [EX 62]	170	0.443 nM	< 3.8	0.51 nM
Cc1ccc(C(=O)N[C@@H](Cc2ccccc2C)C(=O)NCCCC[C@@H](CO)N(CC(C)C)S(=O)(=O)c2ccc(N)cc2)cc1O [EX 63]	165	–	< 3.8	0.938 nM
COC(=O)N[C@H](C(=O)NCCCC[C@H](C(N)=O)N(CC(C)C)S(=O)(=O)c1ccc(N)cc1)C(c1ccccc1)c1ccccc1 [EX. 7]	30	0.049 nM and 0.042 nM	–	0.652 nM and 0.507 nM
COC(=O)N[C@H](C(=O)NCCCC[C@@H](CO)N(Cc1cccnc1)S(=O)(=O)c1ccc(N)cc1)C(c1ccccc1)c1ccccc1 [EX. 33]	196	–	< 3.8	1.01 nM
Cc1ncccc1C(=O)N[C@@H](Cc1ccccc1Br)C(=O)NCCCC[C@@H](CO)N(CC(C)C)S(=O)(=O)c1ccc(N)cc1 [EX. 39]	70	0.183 nM	< 3.8	0.58 nM
Cc1ccc(C(=O)N[C@@H](Cc2ccccc2Br)C(=O)NCCCC[C@@H](CO)N(CC(C)C)S(=O)(=O)c2ccc(N)cc2)cn1 [EX. 40]	55	0.217 nM	< 3.8	0.567 nM
CC(C)CN([C@H](CO)CCCCNC(=O)[C@@H](Cc1ccccc1Br)NC(=O)c1ccc2c(c1)OCO2)S(=O)(=O)c1ccc(N)cc1 [EX. 41]	43	0.05 nM	–	0.336 nM
CC(C)CN([C@H](CO)CCCCNC(=O)C(Cc1ccccc1Br)NC(=O)c1ccncc1)S(=O)(=O)c1ccc(N)cc1 (some centres unmarked) [EX. 42]	40	0.182 nM	< 3.8	0.618 nM
CC(C)CN([C@H](CO)CCCCNC(=O)[C@H](Cc1ccccc1Br)NC(=O)c1cnccn1)S(=O)(=O)c1ccc(N)cc1 [EX. 44]	60	0.318 nM	–	0.471 nM
